The source of these data is patent US4687778A, “Anti-amnestic agent” (Kabushiki Kaisha Yakult Honsha, priority 1984, dated 1987).

Series [1] in a line: Toxicity test (LD50). The following applies: mouse, in vivo; ip, ICR male mice. On the procedure: Using 4-weeks-old male ICR mice weighing 15-20 g, the value of LD50 was calculated by orally or intraperitoneally administering the prolinal derivatives to the mice and counting the deceased mice according to the conventional method.
Series [2] has as its system experimental amnestic rats. The series is described as follows: passive avoidance response of rats (scopolamine-induced amnesia), retention test. The format is in vivo, male Wister SLC rat. The following applies: scopolamine 3 mg/kg i.p. On the procedure:
The method of assay of the anti-amnestic action was carried out according to the method reported by A. Kubota et al. in Int. […] A passive avoidance chamber used in this test was surrounded with inside-visible transparent plastic plates and included an electrifiable grid floor (30 cm in length and 30 cm in width) capable of being derivered with an electric current of 1.7 mA in strength for electric foot shock and a platform (15 cm in length, 15 cm in width and 4 cm in height) placed at the right back corner thereof. A male Wister SLC rat (weighing 100-150 g) was placed in the passive avoidance chamber and, when he stepped down on the floor, the electric current was sent to the grid continuously until he went up on the platform. Repeating this test with another rat, the rats stayed on the platform for more than 15 seconds were taken out of the chamber, being regarded to have learned the situation. This electric shock was normally 2 or 3 times. To avoid any difference in the rats, those required 10 seconds for the first step-down and those stepped down on the floor at least 5 times were excluded. Among the learned or trained rats, the first control group of them were intraperitoneally administered with 0.5% CMC solution and the other groups of them were intraperitoneally administered with scopolamine hydrobromide in a dose of 3 mg/Kg to prepare experimental amnestic rats. The prolinal derivatives of the general formula to be tested were in each case intraperitoneally or orally administered to the rats in an amount shown in Table 1 or 2 one after completion of the learning. In each case, the polinal derivatives are used as having been dissolved or suspended in a 0.5% CMC solution.

The test system of series [3] is proline-specific endopeptidase (post-proline cleaving enzyme). The following applies: cited from earlier work.

Residues, ends and D or L forms follow the SMILES beside them. *: point of attachment. Cbz = O=C(OCc1ccccc1)*; Boc = CC(C)(C)OC(=O)*; CH2Cl = ClC*

By LD50 is commonly meant the dose at which mortality reaches 50%. Low readings indicate greater toxicity, high ones lower toxicity. `CC(=O)N1CCC[C@H]1C(=O)N1CCC[C@H]1C=O` [Acetyl-prolyl-prolinal, acetyl-prolyl-prolinal] (Ac-Pro-Pro-aldehyde): the LD50 in series [1] is 767 mg/kg. For the same compound, in series [2] (2.3 mg/kg i.p. after training), the “Retention Test Latency, 24 hr” value was greater than 300.0 s and the “Retention Test Latency, 48 hr” value is greater than 300.0 s. In series [2] (2.3 mg/kg p.o. after training), the “Retention Test Latency, 24 hr” value worked out at 204.2 s and the “Retention Test Latency, 48 hr” value was 177.4 s.

`CC(C)[C@H](NC(=O)OCc1ccccc1)C(=O)N1CCC[C@H]1C=O` [N--Benzyloxycarbonyl-valyl-prolinal, N-benzyloxycarbonyl-valyl-prolinal] (Cbz-Val-Pro-aldehyde) registered an LD50 in series [1] of 825 mg/kg. Also, the “Retention Test Latency, 24 hr” value in series [2] (2.2 mg/kg i.p. after training) is greater than 300.0 s; in series [2] (2.2 mg/kg p.o. after training), 254.8 s. The “Retention Test Latency, 48 hr” value in series [2] (2.2 mg/kg i.p. after training) is greater than 300.0 s; in series [2] (2.2 mg/kg p.o. after training), 210.5 s.

In turn, `CC(C)C[C@H](NC(=O)OCc1ccccc1)C(=O)N1CCC[C@H]1C=O` [N--Benzyloxycarbonyl-leucyl-prolinal, N-benzyloxycarbonyl-leucyl-prolinal] (Cbz-Leu-Pro-aldehyde) showed an LD50 in series [1] greater than 1000 mg/kg. The “Retention Test Latency, 24 hr” value is greater than 300.0 s in series [2] (3.5 mg/kg i.p. after training) and 281.6 s in series [2] (3.5 mg/kg p.o. after training). Besides, the “Retention Test Latency, 48 hr” value in series [2] (3.5 mg/kg i.p. after training) is greater than 300.0 s; in series [2] (3.5 mg/kg p.o. after training) it was 219.5 s.

Consider `CC(C)(C)OC(=O)N[C@@H](CO)C(=O)N1CCC[C@H]1C=O` [t-Butyloxycarbonyl-seryl-prolinal, t-butyloxycarbonyl-seryl-prolinal] (Boc-Ser-Pro-aldehyde), for which the LD50 in series [1] is greater than 1000 mg/kg. For the same compound, in series [2] (2.9 mg/kg i.p. after training), the “Retention Test Latency, 24 hr” value is greater than 300.0 s and the “Retention Test Latency, 48 hr” value is greater than 300.0 s. Moreover, in series [2] (2.9 mg/kg p.o. after training), the “Retention Test Latency, 24 hr” value was 262.9 s and the “Retention Test Latency, 48 hr” value stood at 185.2 s.

In series [1], `C[C@H](NC(=O)OC(C)(C)C)C(=O)N1CCC[C@H]1C=O` [t-Butyloxycarbonyl-alanyl-prolinal, t-butyloxycarbonyl-alanyl-prolinal] (Boc-Ala-Pro-aldehyde) returned an LD50 of 796 mg/kg. In series [2] (1.8 mg/kg i.p. after training), the “Retention Test Latency, 24 hr” value came to 293.5 s and the “Retention Test Latency, 48 hr” value amounted to 250.4 s. In addition, in series [2] (1.8 mg/kg p.o. after training), the “Retention Test Latency, 24 hr” value is 239.8 s and the “Retention Test Latency, 48 hr” value amounted to 226.7 s.

`O=C(NCC(=O)N1CCC[C@H]1C(=O)CCl)OCc1ccccc1` [N-benzyloxycarbonylglycyl-L-prolyl-chloromethane] (Cbz-Gly-Pro-CH2Cl): in series [3], the “inhibitory action to the endopeptidase” value is recorded as “strong inhibitory action”.

Regarding `O=C[C@@H]1CCCN1C(=O)[C@@H]1CCCN1C(=O)OCc1ccccc1` [N--Benzyloxycarbonyl-prolyl-prolinal, N-benzyloxycarbonyl-prolyl-prolinal] (Cbz-Pro-Pro-aldehyde), the LD50 in series [1] was greater than 1000 mg/kg.

Compound `CC(C)(C)OC(=O)N[C@@H](Cc1ccc(O)cc1)C(=O)N1CCC[C@H]1C=O` [t-Butyloxycarbonyl-tyrosyl-prolinal, t-butyloxycarbonyl-tyrosyl-prolinal] (Boc-Tyr-Pro-aldehyde) returned an LD50 in series [1] of 933 mg/kg. Further, in series [2] (3.6 mg/kg i.p. after training), the “Retention Test Latency, 24 hr” value was found to be 250.8 s and the “Retention Test Latency, 48 hr” value was found to be 206.9 s. In addition, in series [2] (3.6 mg/kg p.o. after training), the “Retention Test Latency, 24 hr” value came to 180.5 s and the “Retention Test Latency, 48 hr” value turned out to be 192.1 s.

In turn, `CC(C)(C)OC(=O)N[C@@H](Cc1ccccc1)C(=O)N1CCC[C@H]1C=O` [t-Butyloxycarbonyl-phenylalanyl-prolinal, t-butyloxycarbonyl-phenylalanyl-prolinal] (Boc-Phe-Pro-aldehyde) returned an LD50 in series [1] greater than 1000 mg/kg. Besides, in series [2] (3.0 mg/kg i.p. after training), the “Retention Test Latency, 24 hr” value is greater than 300.0 s and the “Retention Test Latency, 48 hr” value amounted to 264.3 s. Also, in series [2] (3.0 mg/kg p.o. after training), the “Retention Test Latency, 24 hr” value is greater than 300.0 s and the “Retention Test Latency, 48 hr” value came out at 250.2 s.

In turn, `O=C[C@@H]1CCCN1C(=O)CNC(=O)OCc1ccccc1` [N--Benzyloxycarbonyl-glycyl-prolinal, N-benzyloxycarbonyl-glycyl-prolinal] (Cbz-Gly-Pro-aldehyde) gave an LD50 in series [1] greater than 1000 mg/kg. Further, in series [2] (1.9 mg/kg i.p. after training), the “Retention Test Latency, 24 hr” value was greater than 300.0 s and the “Retention Test Latency, 48 hr” value is greater than 300.0 s. In series [2] (1.9 mg/kg p.o. after training), the “Retention Test Latency, 24 hr” value is 230.4 s and the “Retention Test Latency, 48 hr” value came out at 175.5 s.

In the case of `CC(=O)NCC(=O)N1CCC[C@H]1C=O` [Acetyl-glycyl-prolinal, acetyl-glycyl-prolinal] (Ac-Gly-Pro-aldehyde), the LD50 in series [1] was greater than 1000 mg/kg. Besides, in series [2] (1.3 mg/kg i.p. after training), the “Retention Test Latency, 24 hr” value was 274.9 s and the “Retention Test Latency, 48 hr” value was 198.6 s. In addition, in series [2] (1.3 mg/kg p.o. after training), the “Retention Test Latency, 24 hr” value came to 221.6 s and the “Retention Test Latency, 48 hr” value came to 143.2 s.

For the compound `C[C@H](NC(=O)OCc1ccccc1)C(=O)N1CCC[C@H]1C=O` [N--Benzyloxycarbonyl-alanyl-prolinal, N-benzyloxycarbonyl-alanyl-prolinal] (Cbz-Ala-Pro-aldehyde), in series [1], the LD50 turned out to be 954 mg/kg. For the same compound, the “Retention Test Latency, 24 hr” value in series [2] (2.0 mg/kg i.p. after training) came to 189.0 s; in series [2] (2.0 mg/kg p.o. after training) it was 165.4 s. Besides, the “Retention Test Latency, 48 hr” value in series [2] (2.0 mg/kg i.p. after training) is 203.4 s; in series [2] (2.0 mg/kg p.o. after training) it was 155.2 s.
